Measurements from patent publication US10150737B2, “Compounds for controlling arthropods” (priority 2013, dated 2018).

How the values were obtained:
Phaedon cochleariae = Phaedon cochleariae - spray test; assay type: in vivo; details: larvae on Chinese cabbage leaf discs, after 7 days
Method in brief: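 Mortality of mustard beetle larvae was scored as % at day 7 on Brassica pekinensis leaf discs. Discs had been treated by spraying at the desired concentration, using an acetone/dimethylformamide solution diluted in water with 1000 ppm alkylaryl polyglycol ether, and dried before larvae were added.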

Tetranychus urticae = Tetranychus urticae - spray test, OP-resistant; assay type: in vivo; details: bean leaf discs, after 6 days
Method in brief: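 Mortality (%) read on day 6 after spraying Phaseolus vulgaris leaf discs carrying all mite stages with formulations at the desired concentration. Formulation: active ingredient in acetone plus dimethylformamide, made up with emulsifier-containing water (1000 ppm alkylaryl polyglycol ether).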

Ctenocephalides felis [1] = assay: Ctenocephalides felis - oral test; assay type: in vivo; details: application rate 100 ppm in citrated cattle blood; after 2 days
Method in brief: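 Roughly 20 unfed adult C. felis imbibe compound-dosed citrated cattle blood (DMSO formulation) across parafilm from a cylinder above their gauze chamber; percentage mortality recorded at day 2.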

Spodoptera frugiperda = Spodoptera frugiperda - spray test; assay type: in vivo; details: caterpillars on maize leaf discs, after 7 days
Method in brief: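 Percent mortality of Spodoptera frugiperda caterpillars scored 7 days after placing them on dried maize leaf discs sprayed at the desired concentration. Spray formulation: compound dissolved in acetone/dimethylformamide, made up with water containing 1000 ppm emulsifier.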

Boophilus microplus = Boophilus microplus - injection test; assay type: in vivo; details: application rate 20 μg/animal; injection into engorged adult female ticks; after 7 days
Method in brief: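 Five engorged adult female cattle ticks each received a 1 μl abdominal injection of compound solution in dimethyl sulphoxide. Fertile egg laying was assessed at 7 days, with doubtful eggs incubated about 42 days until hatch. 0% efficacy means all eggs fertile.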

Myzus persicae = Myzus persicae - spray test; assay type: in vivo; details: Chinese cabbage leaf discs, after 6 days
Method: Solvent: 78 parts by weight of acetone and 1.5 parts by weight of dimethylformamide
Emulsifier: alkylaryl polyglycol ether
To produce an appropriate active ingredient formulation, 1 part by weight of active ingredient is dissolved using the specified parts by weight of solvent and made up with water containing an emulsifier concentration of 1000 ppm until the desired concentration is attained. To produce further test concentrations, the preparation is diluted with emulsifier-containing water.
Discs of Chinese cabbage leaves (Brassica pekinensis) infested by all stages of the green peach aphid (Myzus persicae) are sprayed with an active ingredient formulation of the desired concentration.
After 6 days, efficacy in % is determined. 100% means that all the aphids have been killed; 0% means that none of the aphids have been killed.

Musca domestica = Musca domestica test; assay type: in vivo; details: application rate 100 ppm; adult houseflies; after 2 days
Method: Solvent: dimethyl sulphoxide
To produce an appropriate active ingredient formulation, 10 mg of active ingredient are mixed with 0.5 ml of dimethyl sulphoxide, and the concentrate is diluted with water to the desired concentration.
Vessels containing a sponge treated with sugar solution and the active ingredient formulation of the desired concentration are populated with 10 adult houseflies (Musca domestica).
After 2 days, the kill in % is determined. 100% means that all of the flies have been killed; 0% means that none of the flies have been killed.

[2] = logP determination by HPLC on a reversed-phase column (C18); assay type: physicochemical; details: for logP^a): HPLC-MS method a); for log P: HPLC-MS; for logP: HPLC, C18 reversed phase, acetonitrile/water with formic acid, EEC Directive 79/831 Annex V.A8
Lucilia cuprina = Lucilia cuprina test; assay type: in vivo; details: application rate 100 ppm; L1 larvae; after 2 days
Method in brief: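 Mortality (%) of first-instar blowfly larvae, about 20 per vessel, recorded 2 days after exposure to compound-treated minced horsemeat. Compound dissolved in dimethyl sulphoxide, then water-diluted to the desired concentration.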

Ctenocephalides felis [3] = assay: Ctenocephalides felis - in vitro contact tests with adult cat fleas; assay type: in vivo; details: application rate 5 μg/cm2 (=500 g/ha); after 48 h; fleas dead or moribund
Method: For the coating of the test tubes, 9 mg of active ingredient are first dissolved in 1 ml of acetone p.a. and then diluted to the desired concentration with acetone p.a. 250 μl of the solution are distributed homogeneously on the inner walls and base of a 25 ml test tube by turning and rocking on an orbital shaker (rocking rotation at 30 rpm for 2 h). With 900 ppm active ingredient solution and internal surface area 44.7 cm^2, given homogeneous distribution, an area-based dose of 5 μg/cm^2 is achieved.
After the solvent has evaporated off, the tubes are populated with 5-10 adult cat fleas (Ctenocephalides felis), sealed with a perforated plastic lid and incubated in a horizontal position at room temperature and ambient humidity. After 48 h, efficacy is determined. To this end, the test tubes are stood upright and the fleas are knocked to the base of the tube. Fleas which remain motionless at the base or move in an uncoordinated manner are considered to be dead or moribund.
100% efficacy means that all the fleas were dead or moribund. 0% efficacy means that no fleas were harmed.

[4] = reversed-phase column (C18), Table I-T3

| SMILES | efficacy (Phaedon cochleariae; application rate 500 g/ha) [%] | efficacy (Tetranychus urticae; application rate 500 g/ha) [%] | efficacy (kill) (Ctenocephalides felis [1]) [%] | efficacy (Spodoptera frugiperda; application rate 500 g/ha) [%] | efficacy (laying of fertile eggs) (Boophilus microplus) [%] | efficacy (Myzus persicae; application rate 500 g/ha) [%] | efficacy (kill) (Musca domestica) [%] | logP^a) [2] | logP^a) [2, 4] | efficacy (kill) (Lucilia cuprina) [%] | efficacy (Ctenocephalides felis [3]) [%] | efficacy (Phaedon cochleariae; application rate 100 g/ha) [%] | efficacy (Tetranychus urticae; application rate 100 g/ha) [%] | efficacy (Spodoptera frugiperda; application rate 100 g/ha) [%] | logP^a) ([2]; reversed-phase column (C18)) | log P [2, 4] | efficacy (Myzus persicae; application rate 100 g/ha) [%] | logP [2] |
| --- | --- | --- | --- | --- | --- | --- | --- | --- | --- | --- | --- | --- | --- | --- | --- | --- | --- | --- |
| Cc1cc(C(F)(C(F)(F)F)C(F)(F)F)cc(C)c1-n1cc(-c2cncc(C(=O)NC3(C#N)CC3)c2)cn1 [I-T3-8] | 100 | 100 | 100 | 100 | 100 | 90 | 100 | 3.4 | 3.4 | 100 |  |  |  |  |  |  |  |  |
| Cc1cc(C(F)(C(F)(F)F)C(F)(F)F)cc(C)c1-n1cc(-c2cccc(C(=O)NC3CC3)c2F)cn1 [I-T3-9] | 100 | 100 | 100 | 100 | 100 |  |  | 4.3 | 4.3 | 100 | 100 |  |  |  |  |  |  |  |
| Cc1cc(C(F)(C(F)(F)F)C(F)(F)F)cc(C)c1-n1cc(-c2cc(C(=O)NC3CC3)ccc2F)cn1 [I-T3-13] |  |  | 80 |  | 100 |  |  | 4.5 | 4.5 |  | 100 |  |  |  |  |  |  |  |
| Cc1cc(C(F)(C(F)(F)F)C(F)(F)F)cc(C)c1-n1cc(-c2cc(C(=O)NC3(C#N)CC3)c(Cl)cc2F)cn1 [I-T3-17] | 100 |  | 95 | 100 | 100 |  |  | 4.4 | 4.4 | 100 | 100 |  |  |  |  |  |  |  |
| O=C(NC1CC1)c1cc(-c2cnn(-c3ccc(C(F)(C(F)(F)F)C(F)(F)F)cc3Cl)c2)ccc1Cl [I-T3-31] | 100 | 100 | 100 | 100 | 100 |  | 100 | 4.3 | 4.3 | 100 | 100 |  |  |  |  |  |  |  |
| Cc1cc(C(F)(C(F)(F)F)C(F)(F)F)cc(C(F)(F)F)c1-n1cc(-c2ccc(Cl)c(C(=O)NCC(F)(F)F)c2)cn1 [I-T3-84] |  |  | 100 |  | 100 |  | 100 | 4.7 | 4.7 | 100 | 100 | 100 | 100 | 100 |  |  |  |  |
| O=C(NC1CC1)c1cccc(-c2cnn(-c3ncc(C(F)(F)F)cc3Cl)c2)c1 [I-T3-122] |  |  |  |  |  | 100 |  |  |  |  |  |  |  |  | 3.0 | 3.0 |  |  |
| CNc1ncc(-c2cnn(-c3c(Cl)cc(C(F)(C(F)(F)F)C(F)(F)F)cc3Cl)c2)cc1C(=O)NC1CC1 [I-T3-136] |  |  | 100 |  | 100 |  | 100 |  |  | 100 | 100 | 100 |  | 100 | 3.5 | 3.5 |  |  |
| O=C(NC1CC1)c1cc(-c2cnn(-c3c(Cl)cc(C(F)(C(F)(F)F)C(F)(F)F)cc3Cl)c2)cnc1NC1CC1 [I-T3-137] |  |  | 100 |  | 100 |  | 100 |  |  | 80 | 100 | 100 | 90 | 100 | 3.4 | 3.4 |  |  |
| COCCNc1ncc(-c2cnn(-c3c(Cl)cc(C(F)(C(F)(F)F)C(F)(F)F)cc3Cl)c2)cc1C(=O)NC1CC1 [I-T3-138] |  |  |  |  |  |  |  |  |  |  | 100 | 83 | 90 | 100 | 4.1 | 4.1 |  |  |
| CCNC(=O)c1cc(-c2cnn(-c3c(Cl)cc(C(F)(F)F)cc3Cl)c2)cnc1C [I-T3-147] |  |  |  |  |  |  |  |  |  |  | 100 |  | 90 |  | 4.0 | 4.0 |  |  |
| CCSc1cc(C(F)(F)F)cc(Cl)c1-n1cc(-c2ccc(Cl)c(C(=O)NC3(C#N)CC3)c2)cn1 [I-T3-170] |  |  |  |  |  |  |  |  |  |  |  | 100 | 100 | 100 |  | 3.7 | 100 |  |
| N#Cc1cc(C(F)(F)F)cc(Cl)c1-n1cc(-c2ccc(Cl)c(C(=O)NC3CC3)c2)cn1 [I-T3-174] |  |  |  |  |  |  |  |  |  |  |  | 100 | 100 | 100 |  | 3.1 | 100 |  |
| CC[S+]([O-])c1cc(C(F)(F)F)cc(Cl)c1-n1cc(-c2ccc(Cl)c(C(=O)NC3CC3)c2)cn1 (centres unmarked) [I-T3-179] |  |  |  |  |  |  |  |  |  |  |  | 100 | 100 |  |  | 3.0 | 100 |  |
| O=C(NC1CC1)c1cc(-c2cnn(-c3c(F)cc(C(F)(F)F)cc3Cl)c2)ccc1Cl [I-T3-186] | 100 | 100 |  | 100 |  | 90 |  |  |  |  |  |  |  |  |  | 3.6 |  |  |
| N#CC1(NC(=O)c2cc(-c3cnn(-c4c(F)cc(C(F)(F)F)cc4Cl)c3)ccc2Cl)CC1 [I-T3-187] | 100 | 100 |  | 100 |  | 100 |  |  |  |  |  |  |  |  |  | 3.3 |  |  |
| N#CC1(CNC(=O)c2cc(-c3cnn(-c4c(Cl)cc(C(F)(C(F)(F)F)C(F)(F)F)cc4C(F)(F)F)c3)ccc2Cl)CC1 [I-T3-199] |  |  |  |  |  |  |  |  |  |  | 100 |  |  |  |  |  |  |  |
| Cc1cc(C(F)(C(F)(F)F)C(F)(F)F)cc(C)c1-c1cc(-c2ccc(Cl)c(C(=O)NCC(F)(F)F)c2)on1 [I-T22-3] |  |  | 100 |  | 100 |  | 100 |  |  | 100 | 100 | 100 | 90 | 100 |  |  |  | 5 |
| N#CC1(NC(=O)c2cc(-c3cc(-c4c(Cl)cc(C(F)(C(F)(F)F)C(F)(F)F)cc4Cl)on3)ccc2Cl)CC1 [I-T23-2] | 100 | 100 | 100 | 100 | 100 |  | 100 |  |  | 100 | 100 |  |  |  |  |  |  | 4.8 |
| Cc1cc(C(F)(C(F)(F)F)C(F)(F)F)cc(C)c1-n1ccc(-c2ccc(Cl)c(C(=O)NC3CC3)c2)c1 [I-T46-2] |  |  | 100 |  | 100 |  |  |  |  | 100 | 100 | 100 |  | 100 |  |  |  | 5.0 |
